Experimental findings from patent publication US20100003217A1, “Compounds and Pharmaceutical Compositions for the Treatment of Viral Infections” (priority 2008, published 2010) are described below.

One data set deals with rat primary hepatocytes. Briefly: Metabolic disposition of [^14C]-Compound 1 and [^14C]-2′-C-methyl guanosine in rat primary hepatocytes (incubation medium, cellular extracts, nucleotide levels). The format is in vitro ADME, Sprague Dawley rat. In a few lines:
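Rat, monkey or human primary hepatocytes on collagen I plates (1.6 million cells/mL) were incubated at 37° C with 1 or 10 μM C-8 [^14C]-labelled compound or 2′-C-methyl guanosine for 1, 4, 8 and 24 hours. Medium and 70% methanol cell extracts were analysed by LSC and radio-HPLC. Nucleotides were identified by alkaline phosphatase treatment and retention-time matching to standards.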

Data set [1] in a line: Metabolite profiling in human liver microsomes. It is filed as in vitro ADME. Also noted: key: +: peak detected; ?: peak observed; ND: not detected. The settings on record: 50 μM Compound 1, 2 hours. The protocol:
Preliminary identification of putative metabolites was conducted by comparing the retention time of observed metabolites with retention times obtained with chemically synthesized standards using the following HPLC-UV method:
Incubations with liver microsomes, liver cytosol or pig liver esterase were conducted in a final volume of 0.1 mL per incubation time point. Pooled microsomal protein (1.0 mg/mL) suspended in incubation buffer (0.1 M potassium phosphate, pH 7.4) was incubated for 2 hours at 37° C. with 50 μM Compound 1 from a stock solution in DMSO (final DMSO concentration was 0.1%); the microsomal reaction was initiated by the addition of an NADPH regenerating system (1.3 mM NADP^+, 3.3 mM glucose-6-phosphate, 0.4 U/ml glucose-6-phosphate dehydrogenase, and 3.3 mM MgCl2, final concentrations). Incubations with no NADPH or no protein served as controls. Reactions were terminated by the addition of 0.1 mL of stop solution (acetonitrile). The samples were vortex-mixed for 30 sec and then centrifuged at 10,000×g for 10 min. The supernatant was dried using a Labconco CentriVap concentrator and the dry residue reconstituted in water, transferred to an HPLC glass vial and analyzed by HPLC-UV method 2 (described above).
Results: Preliminary identification was accomplished by comparing LC elution of metabolites with that of available synthetic standards of putative metabolites (FIG. 2). Metabolites U1, U2 and U3 were characterized based on the retention times.
On the technique in general: Liver microsomes are vesicles of endoplasmic reticulum, rich in cytochrome P450 enzymes.

The mark [2] stands for this setting: rat hepatocytes (Rs448, Rs458), 10 μM [^14C]-Compound 1, 24 h.
[3] abbreviates: rat hepatocytes (Rs458), 1 μM [^14C]-Compound 1, 1 h.
The mark [4] stands for this setting: rat hepatocytes (Rs458), 1 μM [^14C]-Compound 1, 8 h.
The mark [5] stands for this setting: rat hepatocytes (Rs458), 1 μM [^14C]-Compound 1, 24 h.

Molecules are shown by their SMILES. “And” between values parts separate entries of the source, which are not always exact repeats. Equal values may be shown once.

With `CC(C)(CO)C(=O)SCCOP(=O)(NCc1ccccc1)OC[C@H]1O[C@@H](n2cnc3c(=O)[nH]c(N)nc32)[C@](C)(O)[C@@H]1O` (mixture of isomers) [Compound 1, 3-hydroxy-2,2-dimethyl-thiopropionic acid S-(2-{[(2R,3R,4R,5R)-5-(2-amino-6-oxo-1,6-dihydro-purin-9-yl)-3,4-dihydroxy-4-methyl-tetrahydro-furan-2-ylmethoxy]-benzylamino-phosphoryloxy}-ethyl) ester], the “metabolites observed in cellular extracts (% of total radioactivity)” value is 15.0% and 19.7% in the data set on rat primary hepatocytes (rat hepatocytes (Rs448, Rs458), 10 μM [^14C]-Compound 1, 1 h, listed as Compd 1); 3.86% and 4.02% in the data set with rat primary hepatocytes (rat hepatocytes (Rs448, Rs458), 10 μM [^14C]-Compound 1, 4 h, listed as Compd 1); 1.20% and 0.95% in the data set on rat primary hepatocytes (rat hepatocytes (Rs448, Rs458), 10 μM [^14C]-Compound 1, 8 h, listed as Compd 1); “undetected” in the data set on rat primary hepatocytes (setting [2]); “BLD” in the data set on rat primary hepatocytes (rat hepatocytes (Rs448, Rs458), 10 μM [^14C]-Compound 1, 24 h, listed as Compd 1); 12.3% in the data set on rat primary hepatocytes (setting [3]). Besides, the “metabolites observed in cellular extracts (% of total radioactivity)” value with rat primary hepatocytes (setting [4]) and in the data set with rat primary hepatocytes (setting [5]) was “BLD” throughout. Besides, the “reduction in Compound 1 medium levels” value in the data set on rat primary hepatocytes (rat hepatocytes, 1 μM, 8 hours) is on record as “approximately 79%”. The “decrease in Compound 1 medium levels” value with rat primary hepatocytes (rat hepatocytes, 10 μM, 4 hours) is recorded as roughly 50%. Further, the “% Residual [^14C]-Compound 1 in incubation medium” value in the data set on rat primary hepatocytes (rat primary hepatocytes (n=1), 1 μM, 0 h) is 99%; with rat primary hepatocytes (rat primary hepatocytes (n=1), 1 μM, 1 h), 89%; in the data set on rat primary hepatocytes (rat primary hepatocytes (n=1), 1 μM, 8 h) it was 21%; with rat primary hepatocytes (rat primary hepatocytes (n=1), 1 μM, 24 h) it was 0%; with rat primary hepatocytes (rat primary hepatocytes (n=2), 10 μM, 0 h), 95% and 97%; with rat primary hepatocytes (rat primary hepatocytes (n=2), 10 μM, 1 h), 91% and 93%. Also, the “% Residual [^14C]-Compound 1 in incubation medium” value is 48% and 55% in the data set with rat primary hepatocytes (rat primary hepatocytes (n=2), 10 μM, 4 h); 18% and 32% in the data set with rat primary hepatocytes (rat primary hepatocytes (n=2), 10 μM, 8 h); 0% in the data set on rat primary hepatocytes (rat primary hepatocytes (n=2), 10 μM, 24 h). Also, the “In vitro metabolite profile in microsomes following incubation with Compound 1 (peak detection)” value in data set [1] is on record as “+”.
Regarding `C[C@@]1(O)[C@H](O)[C@@H](CO)O[C@H]1n1cnc2c(=O)[nH]c(N)nc21` [2′-C-methyl guanosine, 9-(2-C-methyl-β-D-ribofuranosyl)guanine, reference compound], the “metabolites observed in cellular extracts (% of total radioactivity)” value with rat primary hepatocytes (rat hepatocytes (Rs448, Rs458), 10 μM [^14C]-Compound 1, 1 h) was 1.84% and 1.75%; with rat primary hepatocytes (rat hepatocytes (Rs448, Rs458), 10 μM [^14C]-Compound 1, 4 h), 5.04% and 3.78%; in the data set with rat primary hepatocytes (rat hepatocytes (Rs448, Rs458), 10 μM [^14C]-Compound 1, 8 h), 8.77% and 4.95%; with rat primary hepatocytes (setting [2]), 14.7% and 16.9%; in the data set on rat primary hepatocytes (setting [3]) it was 1.01%; with rat primary hepatocytes (setting [4]) it was 5.58%. In the data set with rat primary hepatocytes (setting [5]), the “metabolites observed in cellular extracts (% of total radioactivity)” value was 13.1%. Moreover, the “metabolites observed in medium (% of total radioactivity)” value in the data set on rat primary hepatocytes (rat hepatocytes (Rs458), 1 μM [^14C]-Compound 1, 0 h) was “BLD”; in the data set on rat primary hepatocytes (setting [3]) it was “BLD”; in the data set with rat primary hepatocytes (setting [4]), 29.4%; in the data set with rat primary hepatocytes (setting [5]), 58% and 58.3%; in the data set on rat primary hepatocytes (rat hepatocytes (lots Rs448, Rs458), 10 μM [^14C]-Compound 1, 0 h), “BLD^b and BLD”; with rat primary hepatocytes (rat hepatocytes (lots Rs448, Rs458), 10 μM [^14C]-Compound 1, 1 h), 0.8% and 0.5%. For the same compound, the “metabolites observed in medium (% of total radioactivity)” value is 17.5% and 10.1% and 17.0% and 10.0% with rat primary hepatocytes (rat hepatocytes (lots Rs448, Rs458), 10 μM [^14C]-Compound 1, 4 h); 41.5% and 23.4% and 41.0% and 23.0% with rat primary hepatocytes (rat hepatocytes (lots Rs448, Rs458), 10 μM [^14C]-Compound 1, 8 h); 67% and 68.5% and 65.3% and 69.0% and 65.0% in the data set on rat primary hepatocytes (rat hepatocytes (lots Rs448, Rs458), 10 μM [^14C]-Compound 1, 24 h). Further, the “Major metabolites observed in cellular extracts (% of total radioactivity)” value is listed as 93.6 % of total radioactivity in the data set with rat primary hepatocytes (rat hepatocytes Rs448, 10 μM [^14C]-2′-C-methyl guanosine, 1 h); 78.6 % of total radioactivity in the data set with rat primary hepatocytes (rat hepatocytes Rs448, 10 μM [^14C]-2′-C-methyl guanosine, 4 h); 69.2 % of total radioactivity in the data set on rat primary hepatocytes (rat hepatocytes Rs448, 10 μM [^14C]-2′-C-methyl guanosine, 8 h); 51.5 % of total radioactivity with rat primary hepatocytes (rat hepatocytes Rs448, 10 μM [^14C]-2′-C-methyl guanosine, 24 h); 93.4 % of total radioactivity in the data set with rat primary hepatocytes (rat hepatocytes Rs458, 1 μM [^14C]-2′-C-methyl guanosine, 1 h); 68.7 % of total radioactivity with rat primary hepatocytes (rat hepatocytes Rs458, 1 μM [^14C]-2′-C-methyl guanosine, 8 h). Besides, the “Major metabolites observed in cellular extracts (% of total radioactivity)” value is 49.2 % of total radioactivity with rat primary hepatocytes (rat hepatocytes Rs458, 1 μM [^14C]-2′-C-methyl guanosine, 24 h); 94.5 % of total radioactivity in the data set on rat primary hepatocytes (rat hepatocytes Rs458, 10 μM [^14C]-2′-C-methyl guanosine, 1 h); 79.8 % of total radioactivity with rat primary hepatocytes (rat hepatocytes Rs458, 10 μM [^14C]-2′-C-methyl guanosine, 4 h); 67.2 % of total radioactivity with rat primary hepatocytes (rat hepatocytes Rs458, 10 μM [^14C]-2′-C-methyl guanosine, 8 h); 47.1 % of total radioactivity in the data set on rat primary hepatocytes (rat hepatocytes Rs458, 10 μM [^14C]-2′-C-methyl guanosine, 24 h). For the same compound, the “In vitro metabolite profile in microsomes following incubation with Compound 1 (peak detection)” value in data set [1] was “+”.
